SMILES strings stand for the structures. Where two headings read alike, the source gives them in different places.

The text below walks through data of PMC8362950 (PLoS ONE, 2021).

For experiment [1], the target named is T1, 6xHis-CBU0823 (Coxiella burnetii, UniProt Q83DB5).
T1 construct: gene sfcA
Particulars: substrate inhibition constant (KSi), 1 mM MnCl2, PBS pH 7.4.

Experiment [2] has as its target T2, 6xHis-oMLE (Oenococcus oeni, UniProt Q48796).
T2 construct: gene mleA
In kind it is biochemical.

Experiment [3] addresses T2, 6xHis-oMLE. In kind it is biochemical. This is another data set of the same source.
Experiment [4] addresses T3, GST-CBU1241 (Coxiella burnetii, UniProt Q83C87).
T3 construct: gene mdh
As to conditions: substrate inhibition constant (KSi); 0.5 mM NADH, PBS pH 7.4.

T2 sequence (Q48796 whole entry): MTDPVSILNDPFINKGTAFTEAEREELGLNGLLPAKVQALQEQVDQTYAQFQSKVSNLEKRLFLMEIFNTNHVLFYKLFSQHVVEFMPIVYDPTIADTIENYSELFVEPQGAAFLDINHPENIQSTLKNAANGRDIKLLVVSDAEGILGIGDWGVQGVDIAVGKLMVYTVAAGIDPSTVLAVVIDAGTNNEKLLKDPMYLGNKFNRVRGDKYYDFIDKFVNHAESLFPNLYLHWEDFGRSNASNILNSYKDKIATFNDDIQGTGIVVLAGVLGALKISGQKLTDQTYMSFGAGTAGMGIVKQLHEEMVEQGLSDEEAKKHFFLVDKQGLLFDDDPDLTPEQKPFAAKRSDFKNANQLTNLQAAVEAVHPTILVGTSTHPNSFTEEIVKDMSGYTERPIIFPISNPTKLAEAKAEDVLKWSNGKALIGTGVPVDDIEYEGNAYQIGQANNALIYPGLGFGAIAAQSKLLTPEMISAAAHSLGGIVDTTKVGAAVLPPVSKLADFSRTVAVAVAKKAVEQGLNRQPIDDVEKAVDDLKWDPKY
T1 sequence (Q83DB5 1-565 limits assumed): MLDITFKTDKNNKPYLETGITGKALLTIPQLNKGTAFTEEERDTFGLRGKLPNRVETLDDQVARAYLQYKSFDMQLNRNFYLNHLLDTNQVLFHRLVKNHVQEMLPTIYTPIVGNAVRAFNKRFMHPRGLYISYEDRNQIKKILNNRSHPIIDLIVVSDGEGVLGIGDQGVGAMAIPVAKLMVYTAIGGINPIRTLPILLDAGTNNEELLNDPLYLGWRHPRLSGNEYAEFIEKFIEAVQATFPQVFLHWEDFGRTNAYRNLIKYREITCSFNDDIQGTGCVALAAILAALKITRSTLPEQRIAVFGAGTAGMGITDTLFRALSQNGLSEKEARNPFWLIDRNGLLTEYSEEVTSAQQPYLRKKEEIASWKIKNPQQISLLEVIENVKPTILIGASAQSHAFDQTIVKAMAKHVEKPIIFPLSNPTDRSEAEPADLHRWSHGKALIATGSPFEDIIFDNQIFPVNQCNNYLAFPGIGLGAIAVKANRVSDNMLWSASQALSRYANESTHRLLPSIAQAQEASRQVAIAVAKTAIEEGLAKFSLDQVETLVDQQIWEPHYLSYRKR
T3 sequence (Q83C87 whole entry, looked up): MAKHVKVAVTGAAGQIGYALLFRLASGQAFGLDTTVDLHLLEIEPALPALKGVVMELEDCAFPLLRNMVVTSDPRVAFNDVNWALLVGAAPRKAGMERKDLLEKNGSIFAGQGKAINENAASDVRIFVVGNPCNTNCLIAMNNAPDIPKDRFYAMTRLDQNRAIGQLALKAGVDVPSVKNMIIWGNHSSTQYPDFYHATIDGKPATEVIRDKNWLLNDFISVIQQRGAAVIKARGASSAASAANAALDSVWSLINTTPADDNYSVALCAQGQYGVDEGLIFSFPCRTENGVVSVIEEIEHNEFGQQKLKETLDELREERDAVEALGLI

As to `O=C(O)C[C@H](O)C(=O)O` [malate], in experiment [1] (NAD+ 2.5 mM (Fig 6 legend: 5 mM)), the Ki is 10.86 (95% CI -7.31–29.05) mM. Besides, in experiment [2], the “GC-MS detection of lactate and pyruvate” value is 6xHis-oMLE could generate amounts of lactate and pyruvate significantly above baseline.

In the case of `O=C(O)CC(=O)C(=O)O` [oxaloacetate], in experiment [3], the “NADH oxidation at 340 nm” value is “the observed reduction of OAA indicating MDH activity was not detected in the previous characterisation”. Further, the Ki in experiment [4] was 1.25 (95% CI -0.85–3.39) mM.

For `NC(=O)c1ccc[n+]([C@@H]2O[C@H](COP(=O)(O)OP(=O)(O)OC[C@H]3O[C@@H](n4cnc5c(N)ncnc54)[C@H](O)[C@@H]3O)[C@@H](O)[C@H]2O)c1` [NAD^+], the Ki in experiment [1] (3 mM malate, printed as NADH, but b28, Fig 6B and S3F show varied NAD+) is 6.30 (95% CI 0.27–12.33) mM.
